From ChEMBL document CHEMBL6109147, “Discovery of Potent STING Inhibitors Bearing a Difluorobenzodioxol Structural Motif as Potent Anti-Inflammatory Agents” (J Med Chem, 2025)
Active and inactive are the calls of the source. No cut-off for these calls is given here.

What was measured:
[1] = Metabolic stability in mouse liver microsomes assessed as half life; format: ADME, Microsome
[2] = target: Stimulator of interferon genes protein (Homo sapiens) (UniProt Q86WV6); assay: Inhibition of STING downstream signalling in human THP1-Dual cells assessed as inhibition of HT-DNA induced ISG15 mRNA expression at 0.3 to 3 uM pre-treated for 1 hr followed by stimulated with HT-DNA measured after 4 hrs by real-time PCR analysis; format: cell-based; conditions: dose 0.3-3 µM, time 5.0 hrs
[3] = target: Stimulator of interferon genes protein (Homo sapiens) (UniProt Q86WV6); assay: Inhibition of STING downstream signalling in human THP1-Dual cells assessed as inhibition of MSA-2 induced IFN-beta mRNA expression at 0.3 to 3 uM pre-treated for 1 hr followed by stimulated with MSA-2 measured after 4 hrs by real-time PCR analysis; format: cell-based; conditions: dose 0.3-3 µM, time 5.0 hrs
[4] = target: T1, Stimulator of interferon genes protein (Mus musculus, UniProt Q3TBT3); assay: Inhibition of mouse STING in mouse RAW cells assessed as secreted luciferase reporter of interferon stimulated gene (ISG) measured after 24 hrs incubation by QUANTI-Luc detection assay; format: cell-based
T1 sequence (Q3TBT3 whole entry): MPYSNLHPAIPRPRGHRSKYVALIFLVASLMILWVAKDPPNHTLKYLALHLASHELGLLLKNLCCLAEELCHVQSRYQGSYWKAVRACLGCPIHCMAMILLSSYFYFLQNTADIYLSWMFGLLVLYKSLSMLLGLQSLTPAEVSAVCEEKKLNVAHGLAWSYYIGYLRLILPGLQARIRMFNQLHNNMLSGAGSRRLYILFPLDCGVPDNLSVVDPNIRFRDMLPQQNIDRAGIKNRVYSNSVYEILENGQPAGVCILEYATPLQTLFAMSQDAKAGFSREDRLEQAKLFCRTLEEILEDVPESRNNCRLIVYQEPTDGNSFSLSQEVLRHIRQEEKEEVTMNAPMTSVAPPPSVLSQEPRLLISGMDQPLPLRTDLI

[5] = Half life in Sprague-Dawley rat at 1 mg/kg, iv; format: ADME, organism-based; conditions: in vivo
[6] = target: T2, Stimulator of interferon genes protein (Mus musculus) (UniProt Q3TBT3); assay: Inhibition of STING downstream signalling in mouse RAW264.7 cells assessed as inhibition of DMAAA induced Isg56 mRNA level pre-treated for 1 hr followed by stimulated with DMAAA measured after 4 hrs by real-time PCR analysis; format: cell-based; conditions: dose 0.3-3 µM, time 5.0 hrs
T2 sequence (whole entry): T1 sequence (Q3TBT3 whole entry)

[7] = target: Stimulator of interferon genes protein (Homo sapiens) (UniProt Q86WV6); assay: Inhibition of human wild type STING (R232) expressed in human THP-1 Dual cells assessed as reduction in cGAMP-induced IL-6 expression; format: cell-based; conditions: 293-Dual hSTING-R232
Mus musculus [8] = assay: Anti-inflammatory activity in TREX1 D18N mouse model assessed as reduction in Ifn-beta mRNA expression in heart at 10 mg/kg, ip measured after 2 weeks; format: functional, organism-based
[9] = Metabolic stability in human liver microsomes assessed as microsomal intrinsic clearance; format: ADME, Microsome; conditions: read-out: CLH
[10] = target: T2, Stimulator of interferon genes protein (Mus musculus); assay: Inhibition of STING downstream signalling in mouse RAW264.7 cells assessed as inhibition of […] induced IL-6 secretion level at 0.3 to 3 uM pre-treated for 1 hr followed by stimulated with […] measured after 24 hrs by ELISA; format: cell-based; conditions: dose 0.3-3 µM, time 25.0 hrs
Mus musculus [11] = assay: Anti-inflammatory activity against Cisplatin induced C57BL/6 mouse kidney inflammation model assessed as prevention of Cisplatin induced interstitial vacuolation at 5 mg/kg, ip treated for 3 days; format: functional, organism-based; conditions: time 3.0 day
THP1-Dual = assay: Cytotoxicity against human THP1-Dual cells assessed as cell viability measured after 24 hrs by CCK8 assay; format: functional, cell-based
Mus musculus [12] = assay: Anti-inflammatory activity in TREX1 D18N mouse model assessed as reduction in Cxcl10 mRNA expression in heart at 10 mg/kg, ip measured after 2 weeks; format: functional, organism-based
Mus musculus [13] = assay: Prevention of body weight loss in Cisplatin induced C57BL/6 mouse kidney inflammation model at 5 mg/kg, ip treated for 3 days; format: functional, organism-based; conditions: time 3.0 day
[14] = target: T2, Stimulator of interferon genes protein (Mus musculus); assay: Inhibition of STING downstream signalling in mouse BMDM cells assessed as inhibition of MSA-2 induced Isg56 mRNA level pre-treated for 1 hr followed by stimulated with MSA-2 measured after 4 hrs by real-time PCR analysis; format: cell-based; conditions: dose 0.3-3 µM, time 5.0 hrs
Mus musculus [15] = assay: Anti-inflammatory activity against MSA-2 induced C57BL/6 mouse inflammation model assessed as inhibition of MSA-2 induced Isg56 RNA expression in kidney at 10 mg/kg, ip pre-treated for 1 hr followed by stimulated with MSA-2 for 4 hrs by real-time PCR analysis; format: functional, organism-based; conditions: time 5.0 hrs
[16] = target: T2, Stimulator of interferon genes protein (Mus musculus); assay: Inhibition of STING downstream signalling in mouse RAW264.7 cells assessed as inhibition of DMAAA induced TNFalpha secretion level at 0.3 to 3 uM pre-treated for 1 hr followed by stimulated with DMAAA measured after 24 hrs by ELISA; format: cell-based; conditions: dose 0.3-3 µM, time 25.0 hrs
Mus musculus [17] = assay: Anti-inflammatory activity against MSA-2 induced C57BL/6 mouse inflammation model assessed as inhibition of MSA-2 induced IL-6 mRNA expression in kidney at 10 mg/kg, ip pre-treated for 1 hr followed by stimulated with MSA-2 for 4 hrs by real-time PCR analysis; format: functional, organism-based; conditions: time 5.0 hrs
[18] = Metabolic stability in rat liver microsomes assessed as half life; format: ADME, Microsome
[19] = Metabolic stability in mouse liver microsomes assessed as microsomal intrinsic clearance; format: ADME, Microsome; conditions: read-out: CLH
[20] = Metabolic stability in human liver microsomes assessed as liver intrinsic clearance; format: ADME, Microsome
[21] = target: T2, Stimulator of interferon genes protein (Mus musculus); assay: Inhibition of STING downstream signalling in mouse BMDM cells assessed as inhibition of MSA-2 induced Isg15 mRNA level pre-treated for 1 hr followed by stimulated with MSA-2 measured after 4 hrs by real-time PCR analysis; format: cell-based; conditions: dose 0.3-3 µM, time 5.0 hrs
[22] = target: T2, Stimulator of interferon genes protein (Mus musculus); assay: Inhibition of STING in mouse […] ISG cells assessed as reduction in MSA-2-induced secreted luciferase reporter of interferon stimulated gene (ISG) measured after 24 hrs incubation; format: cell-based; conditions: RAW-Lucia ISG
Mus musculus [23] = assay: Anti-inflammatory activity against Cisplatin induced C57BL/6 mouse kidney inflammation model assessed as suppression of Cisplatin induced Cxcl-10 mRNA level in kidney at 5 mg/kg, ip treated for 3 days by real-time PCR analysis; format: functional, organism-based; conditions: time 3.0 day
Mus musculus [24] = assay: Effect on Isg56 expression in Cisplatin induced C57BL/6 STING-KO mouse kidney inflammation model at 5 mg/kg, ip treated for 3 days by real-time PCR analysis; format: functional, organism-based; conditions: time 3.0 day
[25] = Clearance in Sprague-Dawley rat at 1 mg/kg, iv; format: ADME, organism-based; conditions: in vivo
Mus musculus [26] = assay: Anti-inflammatory activity against Cisplatin induced C57BL/6 mouse kidney inflammation model assessed as suppression of Cisplatin induced Isg15 mRNA level in kidney at 5 mg/kg, ip treated for 3 days by real-time PCR analysis; format: functional, organism-based; conditions: time 3.0 day
[27] = AUC (0 to infinity) in Sprague-Dawley rat at 3 mg/kg, po; format: ADME, organism-based; conditions: in vivo
[28] = target: Stimulator of interferon genes protein (Homo sapiens) (UniProt Q86WV6); assay: Inhibition of STING in human THP1-Dual cells assessed as inhibition of HT-DNA induced cGAS activation measured after 1 hr incubation followed by stimulated with HT-DNA by Western blotting analysis; format: cell-based
[29] = target: T2, Stimulator of interferon genes protein (Mus musculus); assay: Inhibition of STING downstream signalling in mouse BMDM cells assessed as inhibition of MSA-2 induced Ccl5 mRNA level pre-treated for 1 hr followed by stimulated with MSA-2 measured after 4 hrs by real-time PCR analysis; format: cell-based; conditions: dose 0.3-3 µM, time 5.0 hrs

Chain of Stimulator of interferon genes protein (Homo sapiens) (Q86WV6 whole entry): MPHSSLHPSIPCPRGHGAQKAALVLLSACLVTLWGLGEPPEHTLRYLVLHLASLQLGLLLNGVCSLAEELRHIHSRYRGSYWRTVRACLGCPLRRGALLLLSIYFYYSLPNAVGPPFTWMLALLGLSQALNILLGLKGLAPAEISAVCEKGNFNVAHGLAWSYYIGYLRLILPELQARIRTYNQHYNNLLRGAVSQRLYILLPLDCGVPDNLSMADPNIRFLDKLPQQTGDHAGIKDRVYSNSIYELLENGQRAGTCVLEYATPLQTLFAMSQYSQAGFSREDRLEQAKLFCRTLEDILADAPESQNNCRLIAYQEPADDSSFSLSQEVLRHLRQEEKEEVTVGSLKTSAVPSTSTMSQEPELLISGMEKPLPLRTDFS

- half-life [1]: 26.7 min
- inhibition [2]: Active
- inhibition [3]: Active
- IC50 [4]: 96.3 nM
- half-life [5]: 19.8 min
- inhibition [6]: Dose-dependent-effect
- inhibition [7]: Active
- microsomal CLint [9]: 41 µL/min/mg
- inhibition [10]: Active
- inhibition [14]: Dose-dependent-effect
- inhibition [16]: Active
- half-life [18]: 38.5 min
- microsomal CLint [19]: 52 µL/min/mg
- CLH [20]: 36.9 µL/min/mg
- inhibition [21]: Dose-dependent-effect
- inhibition [22]: Dose-dependent-effect
- clearance [25]: 88.1 mL/min/kg
- AUC(0-inf) [27]: 74.8 ng·h/mL
- inhibition [28]: Dose-dependent-effect
- inhibition [29]: Dose-dependent-effect
SMILES: N#CC/C=C/c1ccc2[nH]cc(NC(=O)Nc3ccc4c(c3)OC(F)(F)O4)c2c1
- Activity (Mus musculus [8]): Active
- inhibition (Mus musculus [11]): inactive
- inhibition (THP1-Dual): inactive
- Activity (Mus musculus [12]): Active
- Activity (Mus musculus [13]): inactive
- inhibition (Mus musculus [15]): Active
- inhibition (Mus musculus [17]): Active
- inhibition (Mus musculus [23]): Active
- Activity (Mus musculus [24]): inactive
- inhibition (Mus musculus [26]): Active
